Laboratory results taken from patent publication US4137241A, “Deoxy-(0-8)-epi-17-salinomycin (1)” (priority 1977, dated 1979).
≈ marks a conversion by molar mass, not a printed value.

Assays:
[1] = system: Actinomyces cellulosae; assay: Antimicrobial spectrum, agar diffusion technique; type: cell-based; details: Streptomyces cellulosae
Text: (§1) M.I.C. Values in mcg/ml utilizing the
(§2) Test Organism agar diffusion technique

[2] = system: Bacillus megaterium; assay: Antimicrobial spectrum, agar diffusion technique; type: cell-based; details: Priestia megaterium
Text: as §1, §2

[3] = system: Bacillus sp. E; assay: Antimicrobial spectrum, agar diffusion technique; type: cell-based
Text: as §1, §2

[4] = system: Bacillus sp. TA; assay: Antimicrobial spectrum, agar diffusion technique; type: cell-based
Text: as §1, §2

[5] = system: Bacillus subtilis; assay: Antimicrobial spectrum, agar diffusion technique; type: cell-based
Text: as §1, §2

[6] = system: Candida albicans; assay: Antimicrobial spectrum, agar diffusion technique; type: cell-based
Text: as §1, §2

[7] = system: Mycobacterium phlei; assay: Antimicrobial spectrum, agar diffusion technique; type: cell-based; details: Mycolicibacterium phlei
Text: as §1, §2

[8] = system: Paecilomyces varioti; assay: Antimicrobial spectrum, agar diffusion technique; type: cell-based
Text: as §1, §2

[9] = system: Sarcina lutea; assay: Antimicrobial spectrum, agar diffusion technique; type: cell-based; details: Micrococcus luteus
Text: as §1, §2

[10] = system: Staphylococcus aureus; assay: Antimicrobial spectrum, agar diffusion technique; type: cell-based
Text: as §1, §2

[11] = system: DOCA-Na. rat; assay: Subacute antihypertensive activity in the DOCA-Na rat versus bromolasalocid (AHR, onset, duration); type: in vivo
Procedure: (§3) A test was conducted for antihypertensive activity in the DOCA Na rat. DOCA rats weighing 170 to 210 grams are used in the test. DOCA Na Hypertension is induced by unilateral nephrectomy followed by subcutaneous implantation of a 25 mg. desoxycorticosterone (DOCA) pellet. Animals are placed in individual cages receiving 0.9% sodium chloride solution to drink and rat chow diet ad libitum. Two weeks are allowed to elapse from the time of surgery for development of hypertension, i.e., systolic blood pressure of at least 150 mmHg.
(§4) Systolic blood pressure and heart rate are measured indirectly from the tail pressure pulse of unanesthetized rats, using a pneumatic pulse transducer. Control readings are taken prior to drug and post drug readings are taken at 1, 3, 6 and 24 hours.
The experimental results are represented as absolute values. Drug-related alterations in systolic blood pressure are expressed as percentage change by comparing control absolute values with post drug absolute values. […] However, the reduction in blood pressure must show mathematical significance ([…]).
Using bromolasalocid as a standard for comparison, a number of the novel episalinomycin of the present invention was tested for antihypertensive activity. The tests were conducted utilizing single oral dosages in the DOCA-Na. rat over a five-day period with dosing discontinued thereafter. Blood pressure monitoring was carried out for the five-day period and daily after cessation of dosing until blood pressure returned to predrug levels. […] The antihypertensive activity expressed as AHR (Subacute antihypertensive ratio) was calculated using bromolasalocid as the standard reference (Table III).

[12] = Oral (per os) toxicity (LD50); details: in vivo
[13] = system: DOCA Na rat; assay: Antihypertensive activity in the DOCA Na rat, five-day oral dosing, systolic blood pressure; type: in vivo
Procedure: as §3, §4
The experimental results are represented as absolute values. Drug-related alterations in systolic blood pressure are expressed as percentage change by comparing control absolute values with post drug absolute values. Compounds are considered active when about a 15% or greater reduction in blood pressure is obtained. However, the reduction in blood pressure must show mathematical significance ([…]).
A derivative of the polyether ionophore, lasalocid, i.e., the bromo derivative of lasalocid, was tested in the above screen. The compound was orally administered for a five-day period by intubation and thereafter dosing was discontinued but blood pressure monitoring was continued. The following table illustrates the results obtained utilizing bromolasalocid as the test drug.

[14] = daily oral dose 1/100 of LD50 up to 10 mg/kg/day, five days

Work on `CCC(C(=O)O)C1CCC(C)C(C(C)C(O)C(C)C(=O)C(CC)C2OC3(C=CCC4(CCC(C)(C5CCC(O)(CC)C(C)O5)O4)O3)C(C)CC2C)O1` (stereo not drawn) [Deoxy-(0-8)-epi-17-salinomycin, 6-[5-[2'-(5"-Ethyltetrahydro-5"-hydroxy-6"-methyl-(2"H)-pyran-2"-yl]-2' ,12' ,14'-trimethyl-1',10' ,15'-trioxadispiro[4.3.5.1]pentadec-7'-en-11'-yl]-5-ethyl-1,3-dimethyl-2-hydroxy-4-oxopentyl]-alpha-ethyl-tetrahydro-5-methyl-(2H)-pyran-2-acetic acid] yielded an MIC [1] of 250 µg/mL (≈ 340 µM), an MIC [2] of 6.25 µg/mL (≈ 8.5 µM) and an MIC [3] of 6.25 µg/mL (≈ 8.5 µM). It also gave an MIC [4] of 6.25 µg/mL (≈ 8.5 µM), an MIC [5] of 6.25 µg/mL (≈ 8.5 µM) and an MIC [6] of 2000 µg/mL (≈ 2720 µM). For the same compound, the MIC [7] was 500 µg/mL (≈ 680 µM), the MIC [8] was 15.7 µg/mL (≈ 21.4 µM) and the MIC [9] was 25 µg/mL (≈ 34 µM). The MIC [10] was 25 µg/mL (≈ 34 µM), the “antihypertensive activity (in words)” value ([11]; DOCA-Na rat, oral, five-day period) was “exhibited antihypertensive activity” and the “Duration of Effect” value [11, 14] was 4 days. For the same compound, the “Onset to Max. Response” value [11, 14] was 3 days and the LD50 [12] was greater than 1000 mg/kg.
With `CC[C@@H](C(=O)[C@@H](C)[C@@H](O)[C@H](C)CCc1c(Br)cc(C)c(O)c1C(=O)O)[C@H]1O[C@](CC)([C@H]2CC[C@](O)(CC)[C@H](C)O2)C[C@@H]1C` [Bromolasalocid] the “Average Systolic Blood Pressure Per Group” value ([13]; 5 mg/kg per day oral for 5 days, Day 1 pm, pre-drug control (Day 1 am) 209) was 193 mmHg, the “Average Systolic Blood Pressure Per Group” value ([13]; 5 mg/kg per day oral for 5 days, Day 2 am, pre-drug control 209) was 206 mmHg and the “Average Systolic Blood Pressure Per Group” value ([13]; 5 mg/kg per day oral for 5 days, Day 2 pm, pre-drug control 209) was 194 mmHg. For the same compound, the “Average Systolic Blood Pressure Per Group” value ([13]; 5 mg/kg per day oral for 5 days, Day 3 am, pre-drug control 209) was 204 mmHg, the “Average Systolic Blood Pressure Per Group” value ([13]; 5 mg/kg per day oral for 5 days, Day 3 pm, pre-drug control 209) was 191 mmHg and the “Average Systolic Blood Pressure Per Group” value ([13]; 5 mg/kg per day oral for 5 days, Day 4 am, pre-drug control 209) was 206 mmHg. For the same compound, the “Average Systolic Blood Pressure Per Group” value ([13]; 5 mg/kg per day oral for 5 days, Day 4 pm, pre-drug control 209) was 201 mmHg, the “Average Systolic Blood Pressure Per Group” value ([13]; 5 mg/kg per day oral for 5 days, Day 5 am, pre-drug control 209) was 197 mmHg and the “Average Systolic Blood Pressure Per Group” value ([13]; 5 mg/kg per day oral for 5 days, Day 5 pm, pre-drug control 209) was 196 mmHg. The “Average Systolic Blood Pressure Per Group” value ([13]; 10 mg/kg per day oral for 5 days, Day 1 pm, p < .05, pre-drug control (Day 1 am) 217) was 192 mmHg, the “Average Systolic Blood Pressure Per Group” value ([13]; 10 mg/kg per day oral for 5 days, Day 2 am, p < .05, pre-drug control 217) was 181 mmHg and the “Average Systolic Blood Pressure Per Group” value ([13]; 10 mg/kg per day oral for 5 days, Day 2 pm, p < .05, pre-drug control 217) was 166 mmHg. For the same compound, the “Average Systolic Blood Pressure Per Group” value ([13]; 10 mg/kg per day oral for 5 days, Day 3 am, p < .05, pre-drug control 217) was 171 mmHg, the “Average Systolic Blood Pressure Per Group” value ([13]; 10 mg/kg per day oral for 5 days, Day 3 pm, p < .05, pre-drug control 217) was 163 mmHg and the “Average Systolic Blood Pressure Per Group” value ([13]; 10 mg/kg per day oral for 5 days, Day 4 am, p < .05, pre-drug control 217) was 173 mmHg. For the same compound, the “Average Systolic Blood Pressure Per Group” value ([13]; 10 mg/kg per day oral for 5 days, Day 4 pm, p < .05, pre-drug control 217) was 157 mmHg, the “Average Systolic Blood Pressure Per Group” value ([13]; 10 mg/kg per day oral for 5 days, Day 5 am, p < .05, pre-drug control 217) was 176 mmHg and the “Average Systolic Blood Pressure Per Group” value ([13]; 10 mg/kg per day oral for 5 days, Day 5 pm, p < .05, pre-drug control 217) was 166 mmHg. The “Period blood pressure remained below control after drug dosing” value ([13]; after dosing for the first five consecutive days) was 10 days.
